Data as given in PubChem BioAssay (NCI).
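Protocol summary: plate cells (96-well), add compound at 5 concentrations, incubate 48 h, interpolate endpoints linearly. TGI: concentration producing complete growth inhibition.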

Key:
Experiment in all cases: inhibition of tumour cell growth, NCI panel, 48 h
[1] = tested on: HCT-116 colon
[2] = tested on: MDA-MB-435
[3] = tested on: IGROV1 ovarian
[4] = tested on: NCI-H460 lung
[5] = tested on: OVCAR-4 ovarian
[6] = tested on: MOLT-4 leukemia
[7] = tested on: MCF7 breast
[8] = tested on: T-47D breast
[9] = tested on: NCI/ADR-RES ovarian
[10] = tested on: SK-MEL-28 melanoma
[11] = tested on: SF-539 CNS
[12] = tested on: 786-0 renal
[13] = tested on: DU-145 prostate
[14] = tested on: SK-MEL-2 melanoma
[15] = tested on: SK-OV-3 ovarian
[16] = tested on: M14 melanoma
[17] = tested on: OVCAR-5 ovarian
[18] = tested on: OVCAR-3 ovarian
[19] = tested on: CAKI-1 renal
[20] = tested on: SK-MEL-5 melanoma
[21] = tested on: KM12 colon
[22] = tested on: OVCAR-8 ovarian
[23] = tested on: K-562 leukemia
[24] = tested on: SF-268 CNS
[25] = tested on: U251 CNS
[26] = tested on: UACC-257 melanoma
[27] = tested on: HOP-92 NSCLC
[28] = tested on: COLO 205 colon
[29] = tested on: RXF 393 renal
[30] = tested on: SF-295 CNS
[31] = tested on: ACHN renal
[32] = tested on: MDA-N
[33] = tested on: CCRF-CEM leukemia
[34] = tested on: NCI-H226 lung
[35] = tested on: PC-3 prostate
[36] = tested on: BT-549 breast
[37] = tested on: NCI-H522 lung
[38] = tested on: HCC-2998 colon
[39] = tested on: UO-31 renal
[40] = tested on: A498 renal
[41] = tested on: A549 NSCLC
[42] = tested on: SNB-19 CNS
[43] = tested on: HT29 colon
[44] = tested on: MDA-MB-231 breast
[45] = tested on: HL-60(TB) leukemia
[46] = tested on: SR leukemia
[47] = tested on: HOP-62 NSCLC
[48] = tested on: HCT-15 colon
[49] = tested on: RPMI-8226 leukemia
[50] = tested on: UACC-62 melanoma
[51] = tested on: SN12C renal
[52] = tested on: TK-10 renal
[53] = tested on: SW-620 colon
[54] = tested on: EKVX NSCLC
[55] = tested on: LOX IMVI melanoma
[56] = tested on: MALME-3M melanoma
[57] = tested on: HS 578T breast
[58] = tested on: NCI-H23 lung
[59] = tested on: SNB-75 CNS

Question: What does the source list for `Cc1ccc2nc(C(=O)O)c(=O)[nH]c2c1`?
Answer: TGI [1]: > 100 µM; TGI [2]: > 100 µM; TGI [3]: > 100 µM; TGI [4]: > 100 µM; TGI [5]: > 100 µM; TGI [6]: > 100 µM; TGI [7]: > 100 µM; TGI [8]: > 100 µM; TGI [9]: > 100 µM; TGI [10]: > 100 µM; TGI [11]: > 100 µM; TGI [12]: > 100 µM; TGI [13]: > 100 µM; TGI [14]: > 100 µM; TGI [15]: > 100 µM; TGI [16]: > 100 µM; TGI [17]: > 100 µM; TGI [18]: > 100 µM; TGI [19]: > 100 µM; TGI [20]: > 100 µM; TGI [21]: > 100 µM; TGI [22]: > 100 µM; TGI [23]: > 100 µM; TGI [24]: > 100 µM; TGI [25]: > 100 µM; TGI [26]: > 100 µM; TGI [27]: > 100 µM; TGI [28]: > 100 µM; TGI [29]: > 100 µM; TGI [30]: > 100 µM; TGI [31]: > 100 µM; TGI [32]: > 100 µM; TGI [33]: > 100 µM; TGI [34]: > 100 µM; TGI [35]: > 100 µM; TGI [36]: > 100 µM; TGI [37]: > 100 µM; TGI [38]: > 100 µM; TGI [39]: > 100 µM; TGI [40]: > 100 µM; TGI [41]: > 100 µM; TGI [42]: > 100 µM; TGI [43]: > 100 µM; TGI [44]: > 100 µM; TGI [45]: > 100 µM; TGI [46]: > 100 µM; TGI [47]: > 100 µM; TGI [48]: > 100 µM; TGI [49]: > 100 µM; TGI [50]: > 100 µM; TGI [51]: > 100 µM; TGI [52]: > 100 µM; TGI [53]: > 100 µM; TGI [54]: > 100 µM; TGI [55]: > 100 µM; TGI [56]: > 100 µM; TGI [57]: > 100 µM; TGI [58]: > 100 µM

Question: With `C/C(=N\NC(=S)N1CCOCC1)c1nc2ncccc2[nH]1` as the molecule, how does the TGI [1] read?
Answer: The TGI was > 100 µM.

Question: And the TGI [2]?
Answer: The TGI was > 100 µM.

Question: What about the TGI [3] of the same molecule?
Answer: The TGI was > 100 µM.

Question: And the TGI [4]?
Answer: The TGI was > 100 µM.

Question: And the TGI [5]?
Answer: The TGI was > 100 µM.

Question: What about the TGI [6] of the same molecule?
Answer: Its TGI is > 100 µM.

Question: What about the TGI [7] of the same molecule?
Answer: The TGI was 80.4 µM.

Question: What about the TGI [8] of the same molecule?
Answer: Its TGI is > 100 µM.

Question: What about the TGI [9] of the same molecule?
Answer: Its TGI is > 100 µM.

Question: What about the TGI [10] of the same molecule?
Answer: Its TGI is > 100 µM.

Question: And the TGI [11]?
Answer: Its TGI is 51.4 µM.

Question: What about the TGI [13] of the same molecule?
Answer: The TGI was > 100 µM.

Question: What about the TGI [14] of the same molecule?
Answer: Its TGI is 69.4 µM.

Question: What about the TGI [15] of the same molecule?
Answer: The TGI was > 100 µM.

Question: And the TGI [16]?
Answer: Its TGI is > 100 µM.

Question: And the TGI [17]?
Answer: The TGI was > 100 µM.

Question: And the TGI [18]?
Answer: Its TGI is > 100 µM.

Question: What about the TGI [19] of the same molecule?
Answer: The TGI was > 100 µM.

Question: And the TGI [20]?
Answer: Its TGI is > 100 µM.

Question: What about the TGI [21] of the same molecule?
Answer: Its TGI is > 100 µM.

Question: What about the TGI [59] of the same molecule?
Answer: The TGI was 44.1 µM.

Question: And the TGI [22]?
Answer: Its TGI is 80.2 µM.

Question: And the TGI [23]?
Answer: The TGI was > 100 µM.

Question: What about the TGI [24] of the same molecule?
Answer: Its TGI is > 100 µM.

Question: And the TGI [25]?
Answer: The TGI was 81.8 µM.

Question: And the TGI [26]?
Answer: The TGI was 77.4 µM.

Question: And the TGI [27]?
Answer: Its TGI is 68 µM.

Question: What about the TGI [28] of the same molecule?
Answer: Its TGI is > 100 µM.

Question: And the TGI [30]?
Answer: The TGI was 69.6 µM.

Question: What about the TGI [31] of the same molecule?
Answer: Its TGI is > 100 µM.

Question: And the TGI [32]?
Answer: The TGI was > 100 µM.

Question: What about the TGI [33] of the same molecule?
Answer: The TGI was > 100 µM.

Question: What about the TGI [34] of the same molecule?
Answer: Its TGI is > 100 µM.

Question: And the TGI [35]?
Answer: The TGI was > 100 µM.

Question: What about the TGI [36] of the same molecule?
Answer: The TGI was > 100 µM.

Question: And the TGI [37]?
Answer: Its TGI is 59.3 µM.

Question: What about the TGI [38] of the same molecule?
Answer: The TGI was > 100 µM.

Question: What about the TGI [39] of the same molecule?
Answer: Its TGI is 96.2 µM.

Question: What about the TGI [40] of the same molecule?
Answer: The TGI was > 100 µM.

Question: And the TGI [41]?
Answer: The TGI was > 100 µM.

Question: And the TGI [42]?
Answer: The TGI was 84.6 µM.

Question: And the TGI [43]?
Answer: Its TGI is > 100 µM.

Question: And the TGI [44]?
Answer: The TGI was > 100 µM.

Question: And the TGI [45]?
Answer: The TGI was > 100 µM.

Question: What about the TGI [46] of the same molecule?
Answer: The TGI was > 100 µM.

Question: What about the TGI [47] of the same molecule?
Answer: Its TGI is 96 µM.

Question: What about the TGI [48] of the same molecule?
Answer: The TGI was > 100 µM.

Question: What about the TGI [49] of the same molecule?
Answer: The TGI was > 100 µM.

Question: What about the TGI [50] of the same molecule?
Answer: The TGI was > 100 µM.

Question: What about the TGI [51] of the same molecule?
Answer: The TGI was > 100 µM.

Question: And the TGI [52]?
Answer: Its TGI is > 100 µM.

Question: And the TGI [53]?
Answer: The TGI was > 100 µM.

Question: And the TGI [54]?
Answer: Its TGI is > 100 µM.

Question: And the TGI [55]?
Answer: The TGI was > 100 µM.

Question: What about the TGI [56] of the same molecule?
Answer: The TGI was > 100 µM.

Question: And the TGI [57]?
Answer: Its TGI is > 100 µM.

Question: And the TGI [58]?
Answer: The TGI was > 100 µM.
